Assay results: the supplement of paper PMC10307832

Legend:
Assay in all cases: relative viability (nuclei count vs DMSO), 5 days (fraction); higher = more cells survive
[1] = compound: CCOC(=O)CCNc1cc(N2CCc3ccccc3CC2)nc(-c2ccccn2)n1 [GSK-J4] + COc1cc2c(Oc3ccc(NC(=O)C4(C(=O)Nc5ccc(F)cc5)CC4)cc3F)ccnc2cc1OCCCN1CCOCC1 [Foretinib] (partner 0.25 µM)
How it was run: (§1)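 A single step with final 0.05% Triton X-100, 1% formaldehyde and 1 ug/ml Hoechst fixed the cells and stained nuclei 5 days after treatment. Lung cancer cell lines in 1536-well plates had been treated by pin tool the day after seeding with one drug alone or a fixed anchor-drug dose plus five library-drug doses (not always all listed) in √10 steps, and nuclei were counted on 4× images. Relative viability is the ratio of nuclei in treated wells to nuclei in vehicle wells, taken as the median of duplicate plates.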

[2] = compound: CN1CCC(CC1)OC2=CC(=C(C=C2)NC3=NC=C4C(=N3)N(C(=O)N4C)C5CCCC5)OC [AZ3146] + Cc1cc(Nc2cc(N3CCN(C)CC3)nc(Sc3ccc(NC(=O)C4CC4)cc3)n2)n[nH]1 [Tozasertib] (partner 0.1 µM)
How it was run: as §1

[3] = compound: CN1CCC(CC1)OC2=CC(=C(C=C2)NC3=NC=C4C(=N3)N(C(=O)N4C)C5CCCC5)OC [AZ3146] + O=C(c1cc(Cc2n[nH]c(=O)c3ccccc23)ccc1F)N1CCN(C(=O)C2CC2)CC1 [Olaparib] (partner 8 µM)
How it was run: as §1

[4] = compound: CCOC(=O)CCNc1cc(N2CCc3ccccc3CC2)nc(-c2ccccn2)n1 [GSK-J4] + CS(=O)(=O)N1CCN(Cc2cc3nc(-c4cccc5[nH]ncc45)nc(N4CCOCC4)c3s2)CC1 [Pictilisib] (partner 1 µM)
How it was run: as §1

Row | Cell Line | relative viability ([1]; first compound 0.5 µM) | relative viability ([1]; first compound 1.581 µM) | relative viability ([1]; first compound 5 µM) | relative viability ([1]; first compound 15.81 µM) | relative viability ([1]; first compound 50 µM) | relative viability ([2]; first compound 0.08 µM) | relative viability ([2]; first compound 0.253 µM) | relative viability ([2]; first compound 0.8 µM) | relative viability ([2]; first compound 2.53 µM) | relative viability ([2]; first compound 8 µM) | relative viability ([3]; first compound 0.08 µM) | relative viability ([3]; first compound 0.253 µM) | relative viability ([3]; first compound 0.8 µM) | relative viability ([3]; first compound 2.53 µM) | relative viability ([3]; first compound 8 µM) | relative viability ([4]; first compound 0.5 µM) | relative viability ([4]; first compound 1.581 µM) | relative viability ([4]; first compound 5 µM) | relative viability ([4]; first compound 15.81 µM) | relative viability ([4]; first compound 50 µM)
1 | NCI-H2342 | 1.02 | 1.02 | 1.11 | 1.01 | 1.11 | 0.329 | 0.654 | 0.518 | 0.505 | 0.353 | 0.464 | 0.474 | 0.529 | 0.487 | 0.695 |  |  |  |  | 
2 | NCI-H1944 | 0.934 | 0.872 | 1.01 | 0.747 | 0.759 | 0.219 | 0.241 | 0.246 | 0.235 | 0.224 | 0.36 | 0.391 | 0.408 | 0.475 | 0.473 | 0.374 | 0.346 | 0.353 | 0.336 | 0.288
3 | SK-LU-1 | 0.727 | 0.722 | 0.62 | 0.598 | 0.603 | 0.354 | 0.293 | 0.279 | 0.3 | 0.216 | 0.452 | 0.496 | 0.414 | 0.445 | 0.441 | 0.565 | 0.543 | 0.483 | 0.512 | 0.408
4 | HCC-44 |  |  |  |  |  | 0.502 | 0.944 | 0.904 | 0.372 | 0.315 | 0.996 | 0.991 | 1.06 | 0.964 | 0.942 | 0.665 | 0.57 | 0.498 | 0.553 | 0.442
5 | 201T | 1.1 | 1.09 | 1.07 | 0.923 | 1.06 | 0.612 | 0.858 | 0.837 | 0.651 | 0.473 | 0.855 | 0.829 | 0.827 | 0.874 | 0.805 | 0.653 | 0.791 | 0.726 | 0.687 | 0.598
6 | IA-LM | 1.09 | 1.15 | 1.32 | 1.16 | 0.334 |  |  |  |  |  | 0.775 | 0.808 | 0.91 | 0.919 | 0.486 | 0.376 | 0.202 | 0.489 | 0.251 | 0.0942
7 | NCI-H661 | 0.983 | 0.995 | 0.86 | 0.969 | 0.805 | 0.359 | 0.362 | 0.357 | 0.347 | 0.358 | 0.806 | 0.768 | 0.736 | 0.791 | 0.678 | 0.484 | 0.463 | 0.331 | 0.339 | 0.342
8 | NCI-H2087 | 0.973 |  | 1.13 | 1.1 | 0.818 | 0.215 | 0.31 | 0.236 | 0.17 | 0.175 | 0.563 | 0.654 | 0.649 | 0.637 | 0.419 | 0.816 | 0.341 |  | 0.999 | 0.424
9 | NCI-H647 | 1.1 | 0.855 | 1.07 | 1.2 | 1.09 | 0.236 | 0.358 | 0.143 | 0.191 | 0.157 | 0.412 | 0.474 | 0.592 | 0.603 | 0.237 | 0.576 | 0.479 | 0.272 | 0.426 | 0.353
10 | A-427 | 1.05 |  | 1.11 | 0.532 | 0.218 | 0.2 | 0.191 | 0.157 | 0.19 | 0.205 | 0.689 | 0.813 | 0.758 | 0.794 | 0.652 | 0.703 |  | 0.688 | 0.613 | 0.675
11 | NCI-H520 | 0.691 | 0.689 | 0.811 | 0.613 | 0.626 | 0.345 | 0.433 | 0.371 | 0.423 | 0.408 | 0.306 | 0.352 | 0.396 | 0.418 | 0.289 | 0.269 | 0.236 | 0.303 | 0.275 | 0.414
12 | NCI-H1755 | 0.906 | 0.817 | 0.861 | 0.878 | 0.837 | 0.519 | 0.696 | 0.678 | 0.766 | 0.588 | 0.867 | 0.892 | 0.89 | 0.945 | 0.923 | 0.453 | 0.38 | 0.378 | 0.387 | 0.331
13 | NCI-H1975 | 0.947 | 0.785 | 0.732 | 0.95 | 1.04 | 0.684 | 0.732 | 0.275 | 0.208 | 0.227 | 0.748 | 0.774 | 0.813 | 0.793 | 0.418 | 0.279 | 0.31 |  | 0.344 | 0.402
14 | ChaGo-K-1 | 0.995 | 0.907 | 0.971 | 0.895 | 0.72 | 0.192 | 0.229 | 0.22 | 0.235 | 0.206 | 0.352 | 0.436 | 0.361 | 0.421 | 0.357 | 0.864 |  | 0.655 | 0.82 | 0.596
